Test results published in ChEMBL document CHEMBL1148870, “Novel inhibitors of VEGF receptors-1 and -2 based on azole-5-carboxamide templates” (Bioorg Med Chem Lett, 2007).

Assays:
Homo sapiens [1] = species: Homo sapiens; assay: Inhibition of bcr-Abl at 10 uM; set-up: scale not given: the % may be the effect or the level left
[2] = molecular target: Fibroblast growth factor receptor 1 (Homo sapiens) (UniProt P11362); assay: Inhibition of FGFR1 at 10 uM; set-up: scale not given: the % may be the effect or the level left
Homo sapiens [3] = species: Homo sapiens; assay: Inhibition of PKA at 10 uM; set-up: scale not given: the % may be the effect or the level left
Homo sapiens [4] = species: Homo sapiens; assay: Inhibition of Cdk1 at 10 uM; set-up: scale not given: the % may be the effect or the level left
[5] = molecular target: RAC-alpha serine/threonine-protein kinase (Homo sapiens) (UniProt P31749); assay: Inhibition of PKB/Akt at 10 uM; set-up: scale not given: the % may be the effect or the level left
[6] = molecular target: T1, Vascular endothelial growth factor receptor 2 (Homo sapiens, UniProt P35968); assay: Inhibition of VEGFR2 assessed as inhibition of phosphorylation in presence of 2 uM ATP by HTRF assay; type: functional
[7] = molecular target: Hepatocyte growth factor receptor (Homo sapiens) (UniProt P08581); assay: Inhibition of cMet at 10 uM; set-up: scale not given: the % may be the effect or the level left
[8] = molecular target: Receptor tyrosine-protein kinase erbB-2 (Homo sapiens) (UniProt P04626); assay: Inhibition of ErbB2/Her2 at 10 uM; set-up: scale not given: the % may be the effect or the level left
[9] = molecular target: Glycogen synthase kinase-3 beta (Homo sapiens) (UniProt P49841); assay: Inhibition of GSK3-beta at 10 uM; set-up: scale not given: the % may be the effect or the level left
[10] = molecular target: Insulin-like growth factor 1 receptor (Homo sapiens) (UniProt P08069); assay: Inhibition of IGF1R at 10 uM; set-up: scale not given: the % may be the effect or the level left
[11] = molecular target: Vascular endothelial growth factor receptor 1 (Homo sapiens, UniProt P17948); assay: Inhibition of VEGFR1 assessed as inhibition of phosphorylation in presence of 2 uM ATP by HTRF assay; type: functional
Homo sapiens [12] = species: Homo sapiens; assay: Inhibition of InR at 10 uM; set-up: scale not given: the % may be the effect or the level left
[13] = molecular target: RAF proto-oncogene serine/threonine-protein kinase (Homo sapiens) (UniProt P04049); assay: Inhibition of Raf1 at 10 uM; set-up: scale not given: the % may be the effect or the level left
[14] = molecular target: T1, Vascular endothelial growth factor receptor 2; assay: Inhibition of VEGFR2 assessed as inhibition of phosphorylation in human 293 cells by cell-based ELISA; type: functional, HEK293
[15] = molecular target: Receptor-type tyrosine-protein kinase FLT3 (Homo sapiens) (UniProt P36888); assay: Inhibition of Flt3 at 10 uM; set-up: scale not given: the % may be the effect or the level left
[16] = molecular target: Vascular endothelial growth factor receptor 3 (Homo sapiens) (UniProt P35916); assay: Inhibition of Flt4 at 10 uM; set-up: scale not given: the % may be the effect or the level left
[17] = molecular target: Cyclin-dependent kinase 2 (Homo sapiens) (UniProt P24941); assay: Inhibition of Cdk2 at 10 uM; set-up: scale not given: the % may be the effect or the level left
[18] = molecular target: Epidermal growth factor receptor (Homo sapiens) (UniProt P00533); assay: Inhibition of ErbB1 at 10 uM; set-up: scale not given: the % may be the effect or the level left
Epidermal growth factor receptor (Homo sapiens), sequence (P00533 whole entry): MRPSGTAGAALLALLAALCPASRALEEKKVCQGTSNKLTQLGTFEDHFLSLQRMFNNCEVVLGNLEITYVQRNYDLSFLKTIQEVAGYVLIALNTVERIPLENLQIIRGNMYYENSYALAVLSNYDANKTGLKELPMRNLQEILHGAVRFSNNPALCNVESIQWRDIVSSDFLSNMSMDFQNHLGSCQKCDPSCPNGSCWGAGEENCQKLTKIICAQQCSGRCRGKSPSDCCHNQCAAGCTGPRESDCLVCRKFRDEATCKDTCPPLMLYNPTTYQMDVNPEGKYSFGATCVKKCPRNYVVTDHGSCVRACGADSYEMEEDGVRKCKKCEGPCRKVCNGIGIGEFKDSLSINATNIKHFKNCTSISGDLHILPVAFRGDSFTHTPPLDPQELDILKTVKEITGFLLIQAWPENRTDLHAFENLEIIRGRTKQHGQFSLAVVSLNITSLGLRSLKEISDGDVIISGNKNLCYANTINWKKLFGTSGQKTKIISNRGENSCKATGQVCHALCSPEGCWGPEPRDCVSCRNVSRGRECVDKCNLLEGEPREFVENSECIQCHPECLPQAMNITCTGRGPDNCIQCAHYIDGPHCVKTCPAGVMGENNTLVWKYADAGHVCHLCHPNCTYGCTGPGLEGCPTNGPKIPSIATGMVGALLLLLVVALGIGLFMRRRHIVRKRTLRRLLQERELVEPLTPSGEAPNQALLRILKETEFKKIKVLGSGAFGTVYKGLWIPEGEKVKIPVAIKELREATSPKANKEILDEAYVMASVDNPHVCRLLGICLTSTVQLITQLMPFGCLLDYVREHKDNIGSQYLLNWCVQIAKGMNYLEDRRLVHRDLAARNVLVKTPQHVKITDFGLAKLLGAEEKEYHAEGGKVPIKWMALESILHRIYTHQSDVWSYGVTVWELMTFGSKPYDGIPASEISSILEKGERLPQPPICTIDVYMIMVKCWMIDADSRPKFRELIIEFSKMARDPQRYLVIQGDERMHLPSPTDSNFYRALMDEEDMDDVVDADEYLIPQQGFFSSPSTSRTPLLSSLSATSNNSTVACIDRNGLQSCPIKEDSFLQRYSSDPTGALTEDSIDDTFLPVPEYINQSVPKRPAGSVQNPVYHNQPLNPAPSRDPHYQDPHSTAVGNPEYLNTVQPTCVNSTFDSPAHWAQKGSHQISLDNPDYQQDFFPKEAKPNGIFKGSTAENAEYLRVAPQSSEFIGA

Receptor-type tyrosine-protein kinase FLT3 (Homo sapiens), sequence (P36888 whole entry): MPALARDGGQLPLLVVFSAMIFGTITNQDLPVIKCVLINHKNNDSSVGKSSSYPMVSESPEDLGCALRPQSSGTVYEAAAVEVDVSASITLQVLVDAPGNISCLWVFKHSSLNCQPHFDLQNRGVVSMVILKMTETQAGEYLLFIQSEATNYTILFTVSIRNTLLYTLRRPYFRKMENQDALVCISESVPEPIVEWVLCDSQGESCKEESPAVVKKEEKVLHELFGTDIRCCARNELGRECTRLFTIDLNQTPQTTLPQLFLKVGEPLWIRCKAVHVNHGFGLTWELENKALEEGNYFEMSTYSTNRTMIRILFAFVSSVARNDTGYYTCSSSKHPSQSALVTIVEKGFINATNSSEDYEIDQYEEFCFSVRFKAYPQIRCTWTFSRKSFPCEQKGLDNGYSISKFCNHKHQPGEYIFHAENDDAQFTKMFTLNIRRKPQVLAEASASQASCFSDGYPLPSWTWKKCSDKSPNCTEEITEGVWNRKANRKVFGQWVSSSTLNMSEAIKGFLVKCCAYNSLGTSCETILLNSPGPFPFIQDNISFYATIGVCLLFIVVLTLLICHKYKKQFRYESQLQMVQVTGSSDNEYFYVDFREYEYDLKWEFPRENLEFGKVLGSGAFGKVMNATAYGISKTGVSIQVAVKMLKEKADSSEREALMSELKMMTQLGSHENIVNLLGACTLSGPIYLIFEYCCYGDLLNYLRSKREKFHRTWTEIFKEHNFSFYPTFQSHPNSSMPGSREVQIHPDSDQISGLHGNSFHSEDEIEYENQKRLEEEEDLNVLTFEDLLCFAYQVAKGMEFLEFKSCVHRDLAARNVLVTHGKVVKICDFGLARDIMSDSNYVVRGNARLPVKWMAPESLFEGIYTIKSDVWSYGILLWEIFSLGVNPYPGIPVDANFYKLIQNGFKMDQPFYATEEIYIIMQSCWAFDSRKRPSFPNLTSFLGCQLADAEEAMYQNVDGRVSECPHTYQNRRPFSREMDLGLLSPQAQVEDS
Vascular endothelial growth factor receptor 1, sequence (P17948 whole entry): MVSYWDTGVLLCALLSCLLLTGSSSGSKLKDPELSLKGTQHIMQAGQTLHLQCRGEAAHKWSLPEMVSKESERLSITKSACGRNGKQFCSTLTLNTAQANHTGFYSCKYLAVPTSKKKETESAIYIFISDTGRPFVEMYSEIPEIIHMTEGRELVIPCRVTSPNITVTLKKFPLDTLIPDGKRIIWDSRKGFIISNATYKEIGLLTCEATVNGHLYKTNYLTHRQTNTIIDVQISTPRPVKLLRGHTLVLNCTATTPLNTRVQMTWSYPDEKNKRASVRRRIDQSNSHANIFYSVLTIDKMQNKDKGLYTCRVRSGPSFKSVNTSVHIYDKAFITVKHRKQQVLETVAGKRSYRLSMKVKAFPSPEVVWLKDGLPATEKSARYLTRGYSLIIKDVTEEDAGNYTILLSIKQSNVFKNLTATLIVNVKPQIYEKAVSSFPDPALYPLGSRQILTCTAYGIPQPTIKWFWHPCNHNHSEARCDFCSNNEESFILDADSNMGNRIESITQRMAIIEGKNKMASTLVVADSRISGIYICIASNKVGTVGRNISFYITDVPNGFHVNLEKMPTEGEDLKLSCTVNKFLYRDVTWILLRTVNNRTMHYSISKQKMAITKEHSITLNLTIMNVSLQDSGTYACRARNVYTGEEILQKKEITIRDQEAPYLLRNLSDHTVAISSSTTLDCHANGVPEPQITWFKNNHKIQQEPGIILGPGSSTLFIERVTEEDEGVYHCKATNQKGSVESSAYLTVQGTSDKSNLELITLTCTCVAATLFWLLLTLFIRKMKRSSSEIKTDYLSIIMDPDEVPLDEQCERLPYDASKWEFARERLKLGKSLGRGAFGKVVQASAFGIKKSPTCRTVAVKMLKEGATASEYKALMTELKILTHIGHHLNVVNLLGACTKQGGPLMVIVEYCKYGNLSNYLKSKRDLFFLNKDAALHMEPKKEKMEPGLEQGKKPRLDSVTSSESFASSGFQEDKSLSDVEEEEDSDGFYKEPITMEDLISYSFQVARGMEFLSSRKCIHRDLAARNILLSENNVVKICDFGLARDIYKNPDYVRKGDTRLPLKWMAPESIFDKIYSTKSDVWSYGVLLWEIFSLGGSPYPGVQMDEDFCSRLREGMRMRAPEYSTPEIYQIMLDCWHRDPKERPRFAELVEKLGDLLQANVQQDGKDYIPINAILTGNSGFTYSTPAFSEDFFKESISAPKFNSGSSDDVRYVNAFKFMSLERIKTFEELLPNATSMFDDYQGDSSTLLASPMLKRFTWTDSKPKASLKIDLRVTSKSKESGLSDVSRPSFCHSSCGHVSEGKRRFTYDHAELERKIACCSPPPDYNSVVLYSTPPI
Glycogen synthase kinase-3 beta (Homo sapiens), sequence (P49841 whole entry, looked up): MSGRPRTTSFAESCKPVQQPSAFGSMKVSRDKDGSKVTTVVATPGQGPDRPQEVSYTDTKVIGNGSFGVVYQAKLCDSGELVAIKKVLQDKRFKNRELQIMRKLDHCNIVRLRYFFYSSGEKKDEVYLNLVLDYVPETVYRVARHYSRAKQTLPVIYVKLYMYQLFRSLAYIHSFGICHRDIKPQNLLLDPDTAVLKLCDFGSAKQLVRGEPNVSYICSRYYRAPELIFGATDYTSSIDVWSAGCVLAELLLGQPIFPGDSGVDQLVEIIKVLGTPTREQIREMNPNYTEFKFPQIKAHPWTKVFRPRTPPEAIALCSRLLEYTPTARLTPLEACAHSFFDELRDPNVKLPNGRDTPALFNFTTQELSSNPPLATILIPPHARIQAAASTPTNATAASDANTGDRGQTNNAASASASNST
RAF proto-oncogene serine/threonine-protein kinase (Homo sapiens), sequence (P04049 whole entry): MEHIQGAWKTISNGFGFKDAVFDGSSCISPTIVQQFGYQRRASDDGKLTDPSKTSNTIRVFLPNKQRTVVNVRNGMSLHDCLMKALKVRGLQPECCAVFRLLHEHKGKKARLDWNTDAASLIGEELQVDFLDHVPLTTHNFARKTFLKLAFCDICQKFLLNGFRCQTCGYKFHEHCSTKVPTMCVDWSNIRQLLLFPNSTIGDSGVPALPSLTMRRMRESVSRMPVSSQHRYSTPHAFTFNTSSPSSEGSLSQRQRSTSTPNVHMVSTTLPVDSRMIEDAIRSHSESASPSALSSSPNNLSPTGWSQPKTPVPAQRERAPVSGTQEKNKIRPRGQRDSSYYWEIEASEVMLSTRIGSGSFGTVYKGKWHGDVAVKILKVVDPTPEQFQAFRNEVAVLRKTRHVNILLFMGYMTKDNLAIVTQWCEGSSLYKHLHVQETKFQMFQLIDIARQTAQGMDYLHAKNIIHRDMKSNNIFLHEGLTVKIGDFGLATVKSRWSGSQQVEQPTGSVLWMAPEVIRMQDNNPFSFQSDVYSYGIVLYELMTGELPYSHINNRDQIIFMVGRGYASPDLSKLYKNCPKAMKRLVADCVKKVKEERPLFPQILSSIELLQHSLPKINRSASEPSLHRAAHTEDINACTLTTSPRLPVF
RAC-alpha serine/threonine-protein kinase (Homo sapiens), sequence (P31749 whole entry): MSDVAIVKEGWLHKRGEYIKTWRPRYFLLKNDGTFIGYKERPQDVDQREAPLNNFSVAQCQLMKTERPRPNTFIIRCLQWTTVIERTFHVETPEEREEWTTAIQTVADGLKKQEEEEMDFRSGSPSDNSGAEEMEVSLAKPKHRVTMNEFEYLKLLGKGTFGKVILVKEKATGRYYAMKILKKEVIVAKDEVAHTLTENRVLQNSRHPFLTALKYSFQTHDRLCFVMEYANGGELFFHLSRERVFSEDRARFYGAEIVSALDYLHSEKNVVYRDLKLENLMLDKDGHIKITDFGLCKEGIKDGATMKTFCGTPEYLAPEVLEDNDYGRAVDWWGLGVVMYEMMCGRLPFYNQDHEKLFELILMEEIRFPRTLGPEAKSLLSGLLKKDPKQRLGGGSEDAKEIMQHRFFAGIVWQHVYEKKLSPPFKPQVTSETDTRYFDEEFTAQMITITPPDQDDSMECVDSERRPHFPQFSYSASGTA

Row | Compound | Activity (Homo sapiens [1]) [%] | Activity [2] [%] | Activity (Homo sapiens [3]) [%] | Activity (Homo sapiens [4]) [%] | Activity [5] [%] | IC50 [6] [nM] | Activity [7] [%] | Activity [8] [%] | Activity [9] [%] | Activity [10] [%] | IC50 [11] [nM] | Activity (Homo sapiens [12]) [%] | Activity [13] [%] | IC50 [14] [nM] | Activity [15] [%] | Activity [16] [%] | Activity [17] [%] | Activity [18] [%]
1 | O=C(Nc1ccc(OCc2ccccc2)cc1)c1ccnn1CCc1ccncc1 | > 30 | > 30 | > 30 | > 30 | > 30 | > 10000 | > 30 | > 30 | > 30 | > 30 | > 10000 | > 30 | > 30 | > 10000 | > 30 | > 30 | > 30 | < 30
2 | O=C(Nc1ccc(Cl)cc1)c1nnnn1CCc1ccncc1 | > 30 | > 30 | > 30 | > 30 | > 30 | 640 | > 30 | > 30 | > 30 | > 30 | 890 | > 30 | > 30 | 2030 | > 30 | > 30 | > 30 | < 30
3 | O=C(Nc1ccc(OC(F)(F)F)cc1)c1cc2ccccc2n1CCc1ccncc1 | > 30 | > 30 | > 30 | > 30 | > 30 | > 10000 | > 30 | > 30 | > 30 | > 30 | > 10000 | > 30 | > 30 | > 10000 | > 30 | > 30 | > 30 | < 30
4 | O=C(Nc1ccc(Cl)c(C(F)(F)F)c1)c1ccnn1CCc1ccncc1 | > 30 | > 30 | > 30 | > 30 | > 30 | 750 | > 30 | > 30 | > 30 | > 30 | 2330 | > 30 | > 30 | 450 | > 30 | > 30 | > 30 | < 30
5 | O=C(Nc1ccc(Cl)cc1)c1ccnn1CCc1cccnc1 | > 30 | > 30 | > 30 | > 30 | > 30 | > 10000 | > 30 | > 30 | > 30 | > 30 | > 10000 | > 30 | > 30 | > 10000 | > 30 | > 30 | > 30 | < 30
6 | O=C(Nc1ccc(C(F)(F)F)c(Cl)c1)c1nccn1CCc1ccncc1 | > 30 | > 30 | > 30 | > 30 | > 30 | 1310 | > 30 | > 30 | > 30 | > 30 | 4560 | > 30 | > 30 | 4950 | > 30 | > 30 | > 30 | < 30
7 | O=C(Nc1cccc(OC(F)(F)F)c1)c1ccnn1CCc1ccncc1 | > 30 | > 30 | > 30 | > 30 | > 30 | 370 | > 30 | > 30 | > 30 | > 30 | 450 | > 30 | > 30 | 280 | > 30 | > 30 | > 30 | < 30
8 | O=C(Nc1ccc(Cl)cc1)c1ccnn1CCc1cnoc1 | > 30 | > 30 | > 30 | > 30 | > 30 | > 10000 | > 30 | > 30 | > 30 | > 30 | > 10000 | > 30 | > 30 | > 10000 | > 30 | > 30 | > 30 | < 30
9 | O=C(Nc1ccc(Cl)cc1)c1cc2ccccc2n1CCc1ccncc1 | > 30 | > 30 | > 30 | > 30 | > 30 | > 10000 | > 30 | > 30 | > 30 | > 30 | > 10000 | > 30 | > 30 | > 10000 | > 30 | > 30 | > 30 | < 30
